Test results published in ChEMBL document CHEMBL1201862, “PubChem BioAssay data set” (2004).
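Briefly, cells in 96-well plates were exposed to five compound concentrations for 48 h, and endpoints were estimated by linear interpolation. Here, GI50 denotes the concentration required for 50% inhibition of growth.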 Calls of active or inactive are those of the source. No stated cut-off is given here; in the data, active = GI50 up to about 1.1 µM and inactive = higher.

Columns and labels:
Assay in all cases: NCI tumour cell line growth inhibition, 48 h
[1] = tested on: LOX IMVI
[2] = tested on: ACHN
[3] = tested on: MCF7
[4] = tested on: NCI-H226
[5] = tested on: SN12C
[6] = tested on: SK-MEL-5
[7] = tested on: SK-MEL-28
[8] = tested on: NCI-H23
[9] = tested on: HCT-15
[10] = tested on: NCI-H522
[11] = tested on: OVCAR-8
[12] = tested on: SF-268
[13] = tested on: SW-620
[14] = tested on: CCRF-CEM
[15] = tested on: IGROV-1
[16] = tested on: MDA-N
[17] = tested on: MOLT-4
[18] = tested on: HCT-116
[19] = tested on: 786-0
[20] = tested on: HOP-92
[21] = tested on: A498
[22] = tested on: U-251
[23] = tested on: TK-10
[24] = tested on: SK-MEL-2
[25] = tested on: Malme-3M
[26] = tested on: NCI/ADR-RES
[27] = tested on: K562
[28] = tested on: HL-60
[29] = tested on: PC-3
[30] = tested on: BT-549
[31] = tested on: UACC-62
[32] = tested on: COLO 205
[33] = tested on: MDA-MB-231
[34] = tested on: Hs-578T
[35] = tested on: UACC-257
[36] = tested on: HCC 2998
[37] = tested on: SF-539
[38] = tested on: NCI-H460
[39] = tested on: RPMI-8226
[40] = tested on: SR
[41] = tested on: T47D
[42] = tested on: MDA-MB-435
[43] = tested on: SK-OV-3
[44] = tested on: HOP-62
[45] = tested on: OVCAR-5
[46] = tested on: SNB-19
[47] = tested on: HT-29
[48] = tested on: EKVX
[49] = tested on: CAKI-1
[50] = tested on: M14
[51] = tested on: RXF 393
[52] = tested on: SF-295
[53] = tested on: A549
[54] = tested on: UO-31
[55] = tested on: SNB-75
[56] = tested on: KM12
[57] = tested on: OVCAR-4
[58] = tested on: DU-145
[59] = tested on: OVCAR-3

Nc1c2c(nc3ccccc13)CCCCCC2
GI50 [1]: 16 µM (inactive) | GI50 [2]: 27.1 µM (inactive) | GI50 [3]: 26.9 µM (inactive) | GI50 [4]: 43.3 µM (inactive) | GI50 [5]: 40.7 µM (inactive) | GI50 [6]: 17.5 µM (inactive) | GI50 [7]: 13.8 µM (inactive) | GI50 [8]: 42.1 µM (inactive) | GI50 [9]: 30.3 µM | GI50 [10]: 19.6 µM (inactive) | GI50 [11]: 30.4 µM (inactive) | GI50 [12]: 39.3 µM (inactive) | GI50 [13]: 17.1 µM (inactive) | GI50 [14]: 15.6 µM (inactive) | GI50 [15]: 22.4 µM (inactive) | GI50 [16]: 16.5 µM (inactive) | GI50 [17]: 27.2 µM (inactive) | GI50 [18]: 20.8 µM (inactive) | GI50 [19]: 16.4 µM (inactive) | GI50 [20]: 13.6 µM (inactive) | GI50 [21]: 20.7 µM (inactive) | GI50 [22]: 26.8 µM (inactive) | GI50 [23]: 15.2 µM (inactive) | GI50 [24]: 13.7 µM (inactive) | GI50 [25]: 18 µM (inactive) | GI50 [26]: 37.5 µM (inactive) | GI50 [27]: 21.5 µM (inactive) | GI50 [28]: 7.26 µM (inactive) | GI50 [29]: 20.8 µM (inactive) | GI50 [30]: 84.5 µM (inactive) | GI50 [31]: 16.6 µM (inactive) | GI50 [32]: 14.2 µM (inactive) | GI50 [33]: 18.5 µM (inactive) | GI50 [34]: 38.5 µM (inactive) | GI50 [35]: 15.4 µM (inactive) | GI50 [36]: 14.4 µM (inactive) | GI50 [37]: 16.1 µM (inactive) | GI50 [38]: 16.6 µM (inactive) | GI50 [39]: 19.1 µM (inactive) | GI50 [40]: 15.7 µM (inactive)

COc1ccc2c(c1)CN1C(=N2)CSC1c1cc([N+](=O)[O-])ccc1Cl (stereo not given)
GI50 [41]: 32.4 µM (inactive) | GI50 [1]: 31.3 µM (inactive) | GI50 [2]: 44.7 µM (inactive) | GI50 [3]: 28.2 µM (inactive) | GI50 [42]: 19.4 µM (inactive) | GI50 [4]: 42 µM (inactive) | GI50 [5]: 65.6 µM (inactive) | GI50 [6]: 25.6 µM (inactive) | GI50 [8]: 29 µM (inactive) | GI50 [9]: 30.6 µM | GI50 [43]: 45.3 µM (inactive) | GI50 [44]: 75.2 µM (inactive) | GI50 [10]: 32.3 µM (inactive) | GI50 [45]: 58.5 µM (inactive) | GI50 [11]: 48.8 µM (inactive) | GI50 [46]: 52.6 µM (inactive) | GI50 [12]: 46.6 µM (inactive) | GI50 [47]: 24.7 µM (inactive) | GI50 [13]: 31 µM (inactive) | GI50 [48]: 23.6 µM (inactive) | GI50 [15]: 58.7 µM (inactive) | GI50 [16]: 17.8 µM (inactive) | GI50 [17]: 29.2 µM (inactive) | GI50 [18]: 27.2 µM (inactive) | GI50 [19]: 37.9 µM (inactive) | GI50 [20]: 37.4 µM (inactive) | GI50 [22]: 40.6 µM (inactive) | GI50 [23]: > 100 µM (inactive) | GI50 [24]: 31.1 µM (inactive) | GI50 [49]: 27.3 µM (inactive) | GI50 [25]: 55.8 µM (inactive) | GI50 [50]: 31.6 µM (inactive) | GI50 [51]: 26.2 µM (inactive) | GI50 [26]: 25.1 µM (inactive) | GI50 [27]: 10.8 µM (inactive) | GI50 [52]: 39.4 µM (inactive) | GI50 [28]: 16.8 µM (inactive) | GI50 [29]: 36.1 µM (inactive) | GI50 [30]: 22.5 µM (inactive) | GI50 [53]: 33.2 µM (inactive) | GI50 [31]: 23.2 µM (inactive) | GI50 [32]: 30.8 µM (inactive) | GI50 [33]: 54.5 µM (inactive) | GI50 [54]: 41.1 µM (inactive) | GI50 [34]: 47.1 µM (inactive) | GI50 [35]: 38.1 µM (inactive) | GI50 [36]: 33.1 µM (inactive) | GI50 [55]: 52.1 µM (inactive) | GI50 [37]: 28.5 µM (inactive) | GI50 [56]: 28.1 µM (inactive) | GI50 [57]: 39.1 µM (inactive) | GI50 [38]: 31.9 µM (inactive) | GI50 [39]: 21 µM (inactive) | GI50 [40]: 33.8 µM (inactive)

O=C(c1ccccn1)c1nnn2ccccc12
GI50 [41]: > 100 µM (inactive) | GI50 [1]: > 100 µM (inactive) | GI50 [2]: > 100 µM (inactive) | GI50 [3]: > 100 µM (inactive) | GI50 [42]: > 100 µM (inactive) | GI50 [4]: > 100 µM (inactive) | GI50 [5]: > 100 µM (inactive) | GI50 [6]: > 100 µM (inactive) | GI50 [7]: > 100 µM (inactive) | GI50 [8]: > 100 µM (inactive) | GI50 [58]: > 100 µM (inactive) | GI50 [9]: > 100 µM | GI50 [43]: > 100 µM (inactive) | GI50 [44]: > 100 µM (inactive) | GI50 [10]: > 100 µM (inactive) | GI50 [45]: > 100 µM (inactive) | GI50 [11]: > 100 µM (inactive) | GI50 [46]: > 100 µM (inactive) | GI50 [12]: > 100 µM (inactive) | GI50 [47]: > 100 µM (inactive) | GI50 [59]: > 100 µM (inactive) | GI50 [13]: > 100 µM (inactive) | GI50 [14]: > 100 µM (inactive) | GI50 [48]: > 100 µM (inactive) | GI50 [15]: > 100 µM (inactive) | GI50 [16]: > 100 µM (inactive) | GI50 [17]: > 100 µM (inactive) | GI50 [18]: > 100 µM (inactive) | GI50 [19]: > 100 µM (inactive) | GI50 [20]: > 100 µM (inactive) | GI50 [21]: > 100 µM (inactive) | GI50 [22]: > 100 µM (inactive) | GI50 [23]: > 100 µM (inactive) | GI50 [24]: > 100 µM (inactive) | GI50 [49]: > 100 µM (inactive) | GI50 [25]: > 100 µM (inactive) | GI50 [50]: > 100 µM (inactive) | GI50 [27]: > 100 µM (inactive) | GI50 [52]: > 100 µM (inactive) | GI50 [28]: > 100 µM (inactive) | GI50 [29]: > 100 µM (inactive) | GI50 [30]: > 100 µM (inactive) | GI50 [53]: > 100 µM (inactive) | GI50 [31]: > 100 µM (inactive) | GI50 [32]: > 100 µM (inactive) | GI50 [33]: > 100 µM (inactive) | GI50 [34]: > 100 µM (inactive) | GI50 [35]: > 100 µM (inactive) | GI50 [36]: > 100 µM (inactive) | GI50 [55]: > 100 µM (inactive) | GI50 [37]: > 100 µM (inactive) | GI50 [56]: > 100 µM (inactive) | GI50 [57]: > 100 µM (inactive) | GI50 [38]: > 100 µM (inactive) | GI50 [39]: > 100 µM (inactive) | GI50 [40]: > 100 µM (inactive)
